{
  "source": "paper PMC8956723",
  "about": "“Secretory quality control constrains functional selection-associated protein structure innovation” (Communications Biology, 2022)",
  "assay_in_all_cases": "ELISA, CRP binding to immobilised PC-KLH",
  "conditions_in_all_cases": "PC presented as immobilised KLH conjugate, not free ligand; 2 mM CaCl2, TBS pH 7.4; calcium-dependent",
  "key": {"human CRP": {"molecular_target": "T1, human CRP (Homo sapiens, UniProt P02741)", "T1 sequence (P02741 19-224)": "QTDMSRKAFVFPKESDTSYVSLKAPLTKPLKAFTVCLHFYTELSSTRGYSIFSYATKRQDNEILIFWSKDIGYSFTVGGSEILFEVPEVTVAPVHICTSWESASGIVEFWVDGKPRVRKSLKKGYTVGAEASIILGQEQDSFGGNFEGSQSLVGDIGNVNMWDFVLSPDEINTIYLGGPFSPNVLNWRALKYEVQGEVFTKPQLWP"}, "mouse CRP": {"molecular_target": "T2, mouse CRP (Mus musculus, UniProt P14847)", "T2 construct": "signal peptide replaced by alpha-factor signal, N-terminal 6xHis tag kept; secreted from Pichia pastoris GS115; homopentamer", "T2 sequence (P14847 20-225)": "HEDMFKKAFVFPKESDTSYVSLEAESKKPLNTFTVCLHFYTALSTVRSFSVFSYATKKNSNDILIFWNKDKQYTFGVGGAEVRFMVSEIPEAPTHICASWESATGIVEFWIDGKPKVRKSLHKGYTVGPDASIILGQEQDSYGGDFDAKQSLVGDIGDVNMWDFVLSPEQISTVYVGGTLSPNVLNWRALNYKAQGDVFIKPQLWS"}, "rat CRP": {"molecular_target": "T3, rat CRP (Rattus norvegicus, UniProt P48199)", "T3 construct": "signal peptide replaced by alpha-factor signal, N-terminal 6xHis tag kept; secreted from Pichia pastoris GS115; homopentamer", "T3 sequence (P48199 20-230)": "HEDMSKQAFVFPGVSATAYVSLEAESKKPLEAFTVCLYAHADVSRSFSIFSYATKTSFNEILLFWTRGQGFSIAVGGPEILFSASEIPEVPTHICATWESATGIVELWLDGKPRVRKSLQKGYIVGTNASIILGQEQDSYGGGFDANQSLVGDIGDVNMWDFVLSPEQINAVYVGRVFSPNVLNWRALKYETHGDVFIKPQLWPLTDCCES"}},
  "data": [
    {"smiles": "C[N+](C)(C)CCOP(=O)([O-])O", "note": "[phosphorylcholine]", "values": [
      {"measurement": "ELISA, CRP binding to immobilised PC-KLH", "setting": "human CRP", "value": "mouse, rat, and human CRP also showed a comparable capacity to bind PC"},
      {"measurement": "ELISA, CRP binding to immobilised PC-KLH", "setting": "mouse CRP", "value": "mouse, rat, and human CRP also showed a comparable capacity to bind PC"},
      {"measurement": "ELISA, CRP binding to immobilised PC-KLH", "setting": "rat CRP", "value": "mouse, rat, and human CRP also showed a comparable capacity to bind PC"}
    ]}
  ]
}
